Assay results published in patent US12655116B2, “Substituted isophthalic acid diamides” (Bayer Aktiengesellschaft, priority 2020, dated 2026).

How the values were obtained:
[1] = test system: ALOMY; test: Pre-emergence herbicidal action against ALOMY; assay type: in vivo, Alopecurus myosuroides; conditions: 80 g/ha, pre-emergence, scored visually after 3 weeks vs untreated controls (100% = plants have died, 0% = like control plants)
In short: (§1)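 Visual rating at 3 weeks vs untreated pots; 0–100% scale, 100% = plants died. Treatment: aqueous WP/EC spray onto covering soil, 600–800 l/ha, 0.2% wetter, seeds in sandy loam.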

[2] = test system: ECHCG; test: Pre-emergence herbicidal action against ECHCG; assay type: in vivo, Echinochloa crus-galli; conditions: 80 g/ha
In short: as §1

[3] = test system: POLCO; test: Pre-emergence herbicidal action against POLCO; assay type: in vivo, Polygonum convolvulus; conditions: dosage 80 g/ha
In short: as §1

[4] = test system: ABUTH; test: Post-emergence herbicidal action against ABUTH; assay type: in vivo, Abutilon theophrasti; conditions: visual assessment about 3 weeks after treatment vs untreated controls
In short: (§2)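 Greenhouse pot plants in sandy loam were sprayed at the one-leaf stage, 2 to 3 weeks after sowing, with WP or EC formulations as aqueous suspension or emulsion (600 to 800 l/ha water, 0.2% wetting agent). About 3 weeks later, damage was scored visually against untreated controls as % action (100% = dead, 0% = like control).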

[5] = test system: MATIN; test: Pre-emergence herbicidal action against MATIN; assay type: in vivo, Matricaria inodora
In short: as §1

[6] = test system: LOLRI; test: Pre-emergence herbicidal action against LOLRI; assay type: in vivo, Lolium rigidum; conditions: 80 g/ha
In short: as §1

[7] = test system: ALOMY; test: Post-emergence herbicidal action against ALOMY; assay type: in vivo, Alopecurus myosuroides; conditions: visual assessment about 3 weeks after treatment vs untreated controls
In short: as §2

[8] = test system: SETVI; test: Post-emergence herbicidal action against SETVI; assay type: in vivo, Setaria viridis
In short: as §2

[9] = test system: VIOTR; test: Post-emergence herbicidal action against VIOTR; assay type: in vivo, Viola tricolor
In short: as §2

[10] = test system: AMARE; test: Post-emergence herbicidal action against AMARE; assay type: in vivo, Amaranthus retroflexus; conditions: 20 g/ha, visual assessment about 3 weeks after treatment, 100% = plants have died, 0% = like control plants
In short: as §2

[11] = test system: AVEFA; test: Post-emergence herbicidal action against AVEFA; assay type: in vivo, Avena fatua; conditions: 20 g/ha, visual assessment about 3 weeks after treatment, 100% = plants have died, 0% = like control plants
In short: as §2

[12] = test system: AVEFA; test: Pre-emergence herbicidal action against AVEFA; assay type: in vivo, Avena fatua; conditions: 80 g/ha, pre-emergence
In short: as §1

[13] = test system: SETVI; test: Pre-emergence herbicidal action against SETVI; assay type: in vivo, Setaria viridis
In short: as §1

[14] = test system: VIOTR; test: Pre-emergence herbicidal action against VIOTR; assay type: in vivo, Viola tricolor
In short: as §1

[15] = test system: AMARE; test: Pre-emergence herbicidal action against AMARE; assay type: in vivo, Amaranthus retroflexus
In short: as §1

[16] = test system: MATIN; test: Post-emergence herbicidal action against MATIN; assay type: in vivo, Matricaria inodora
In short: as §2

[17] = test system: DIGSA; test: Pre-emergence herbicidal action against DIGSA; assay type: in vivo, Digitaria sanguinalis
In short: as §1

[18] = test system: ABUTH; test: Pre-emergence herbicidal action against ABUTH; assay type: in vivo, Abutilon theophrasti; conditions: for Pre-emergence action against ABUTH (herbicidal activity): 80 g/ha, scored visually after 3 weeks vs untreated controls (100% = plants have died, 0% = like control plants); for Pre-emergence action against ABUTH (herbicidal activity in percent): dosage 20 g/ha, scored visually after 3 weeks vs untreated controls, 100% = plants have died, 0% = like control plants
In short: as §1

[19] = test system: DIGSA; test: Post-emergence herbicidal action against DIGSA; assay type: in vivo, Digitaria sanguinalis
In short: as §2

[20] = test system: PHBPU; test: Post-emergence herbicidal action against PHBPU; assay type: in vivo, Pharbitis purpurea; conditions: dosage 20 g/ha
In short: as §2

[21] = test system: VERPE; test: Pre-emergence herbicidal action against VERPE; assay type: in vivo, Veronica persica; conditions: dosage 80 g/ha
In short: as §1

[22] = test system: ECHCG; test: Post-emergence herbicidal action against ECHCG; assay type: in vivo, Echinochloa crus-galli
In short: as §2

[23] = test system: PHBPU; test: Pre-emergence herbicidal action against PHBPU; assay type: in vivo, Pharbitis purpurea; conditions: dosage 80 g/ha
In short: as §1

[24] = test system: VERPE; test: Post-emergence herbicidal action against VERPE; assay type: in vivo, Veronica persica; conditions: 20 g/ha
In short: as §2

[25] = 20 g/ha, scored visually after 3 weeks vs untreated controls, 100% = plants have died, 0% = like control plants
[26] = 80 g/ha, scored visually after 3 weeks vs untreated controls (100% = plants have died, 0% = like control plants)

Structure (SMILES) | Pre-emergence action against ALOMY (herbicidal activity) [1] | Pre-emergence action against ECHCG in % [2] | Post-emergence action against ABUTH in % ([4]; dosage 5 g/ha) | Post-emergence action against ABUTH in % ([4]; dosage 20 g/ha) | Pre-emergence action against MATIN in % ([5]; dosage 20 g/ha) | Pre-emergence action against MATIN in % ([5]; dosage 80 g/ha) | Pre-emergence action against LOLRI in % [6] | Post-emergence action against ALOMY in % ([7]; dosage 20 g/ha) | Post-emergence action against SETVI in % ([8]; dosage 5 g/ha) | Post-emergence action against SETVI in % ([8]; dosage 20 g/ha) | Post-emergence action against VIOTR in % ([9]; 20 g/ha) | Post-emergence action at 20 g/ha against AMARE in % [10] | Post-emergence action at 20 g/ha against AVEFA in % [11] | Pre-emergence action against SETVI in % ([13]; dosage 80 g/ha) | Pre-emergence action against VIOTR in % ([14]; dosage 80 g/ha) | Pre-emergence action against AMARE in % [15, 25] | Pre-emergence action against AMARE in % [15, 26] | Post-emergence action against MATIN in % ([16]; dosage 20 g/ha) | Pre-emergence action against ABUTH (herbicidal activity) [18] | Pre-emergence action against ABUTH (herbicidal activity in percent) [18] | also measured
CCn1nnnc1NC(=O)c1ccc(I)c(C(=O)NC)c1Cl [Example 2-195] | 100% | 80% | 100% | 100% | 100% | 100% | 90% | 100% | 90% | 100% | 100% | 100% | 80% | 100% | 100% | 100% | 100% | 90% | 100% | 100% | Pre-emergence action against POLCO in % [3]: 80%; Post-emergence action against ALOMY in % ([7]; dosage 5 g/ha): 80%; Post-emergence action against VIOTR in % ([9]; 5 g/ha): 100%; Pre-emergence action against AVEFA in % [12]: 80%; Pre-emergence action against SETVI in % ([13]; dosage 20 g/ha): 80%; Pre-emergence action against VIOTR in % ([14]; dosage 20 g/ha): 100%; Post-emergence action against MATIN in % ([16]; dosage 5 g/ha): 80%; Pre-emergence action against DIGSA in % ([17]; dosage 20 g/ha): 90%; Pre-emergence action against DIGSA in % ([17]; dosage 80 g/ha): 100%; Post-emergence action against DIGSA in % ([19]; 5 g/ha): 80%; Post-emergence action against DIGSA ([19]; 20 g/ha): 90%
CSc1c(C(=O)Nc2nnnn2C)ccc(C(F)F)c1C(=O)NCC(F)F [Example 1-92] | 90% | 100% | 90% | 100% | 100% | 100% | 90% | 90% | 90% | 100% | 100% | 100% | 90% | 100% | 100% | 100% | 100% | 80% | 100% | 100% | Post-emergence action against PHBPU in % [20]: 90%; Pre-emergence action against VERPE in % [21]: 100%; Post-emergence action against ECHCG in % ([22]; dosage 5 g/ha): 100%; Post-emergence action against ECHCG in % ([22]; dosage 20 g/ha): 100%; Pre-emergence action against PHBPU in % [23]: 90%; Post-emergence action against VERPE in % [24]: 90%
